What all share (assay): total cell number, CellTiterGLO assay
(In general: ATP-based viability assays read luminescence as a measure of living cells.)

In experiment [1] the test system is HaCat human keratinocytes. Type of experiment: cell-based. The conditions noted are these: single peptide, concentrations as high as 30 μM, 4 or 7 days. How it is done:
FIGS. 11A-F. SSTN treatment of normal (nontransformed) epithelial cells versus carcinoma (transformed) cells. Cells are plated for one day, then treated with either 3-30 μM […] (SSTN-I), 3-30 μM […] (SSTN-E), 3-30 μM SSTNHER2 (SSTN-H) or combinations of the three peptides, each at 10 μM to test their additive effect. […] The treatment times are chosen to reflect only modest effects of the peptides used singly, so that the more pronounced effect of peptides used in combination can still be observed. Treatment for longer times leads to significant cell death observed even with single peptides alone. (FIG. 11A) HaCat human keratinocytes, an example of a normal stratified epithelium, (FIG. 11B) UM-SCC47 cells, a squamous cell carcinoma derived from the tongue of a patient (a stratrified epithelium), (FIG. 11C) SCC25 cells, another squamous cell carcinoma from the tongue of a patient (FIG. 11D) MCF10A cells, a normal human breast epithelium, (FIG. 11E) MDA-MB-468 cells, a triple-negative (TN) breast carcinoma, and (FIG. 11F) SKBr3 cells, a HER2+ human breast carcinoma. Note that the “triple-negative” designation of the MDA-MB-468 carcinoma means the cells are negative for progesterone receptor, estrogen receptor and the HER2 kinase. Thus, they would not be expected to rely on HER2. Indeed, these cells are not affected by SSTNHER2, either alone or when combined with the other peptides. […]

The subject of experiment [2] is MCF10A cells. It counts as cell-based, human. Particulars: single peptide, concentrations as high as 30 μM, 4 or 7 days. How it is done:
(§1) FIGS. 11A-F. SSTN treatment of normal (nontransformed) epithelial cells versus carcinoma (transformed) cells. Cells are plated for one day, then treated with either 3-30 μM […] (SSTN-I), 3-30 μM […] (SSTN-E), 3-30 μM SSTNHER2 (SSTN-H) or combinations of the three peptides, each at 10 μM to test their additive effect. […] The treatment times are chosen to reflect only modest effects of the peptides used singly, so that the more pronounced effect of peptides used in combination can still be observed. Treatment for longer times leads to significant cell death observed even with single peptides alone. (FIG. 11A) HaCat human keratinocytes, an example of a normal stratified epithelium, (FIG. 11B) UM-SCC47 cells, a squamous cell carcinoma derived from the tongue of a patient (a stratrified epithelium), (FIG. 11C) SCC25 cells, another squamous cell carcinoma from the tongue of a patient (FIG. 11D) MCF10A cells, a normal human breast epithelium, (FIG. 11E) MDA-MB-468 cells, a triple-negative (TN) breast carcinoma, and (FIG. 11F) SKBr3 cells, a HER2+ human breast carcinoma. Note that the “triple-negative” designation of the MDA-MB-468 carcinoma means the cells are negative for progesterone receptor, estrogen receptor and the HER2 kinase. Thus, they would not be expected to rely on HER2. Indeed, these cells are not affected by SSTNHER2, either alone or when combined with the other peptides. […] Nonetheless, the other three carcinomas are inhibited by SSTNHER2, and this is enhanced when SSTNHER2 is combined with the other SSTN peptides, leading to obvious cell death (e.g., the number of cells at the end of the experiment are less than at the beginning).
(§2) Cells (5×10^4/well in a 24-well plate) were treated with activated TAT-peptide ([…]; (SEQ ID NO:18)), inactivated TAT-peptide ([…]; (SEQ ID NO:19)) or GST fusion protein (GST, GST-S1ED or GST-S4ED). Cells death was observed by trypan blue staining or Cell Tilter-GLO Cell Viability Assay (Promega).

In experiment [3] the test system is MDA-MB-468 cells. It counts as cell-based, human. The conditions noted are these: 4 or 7 days. How it is done: as §1, §2
The subject of experiment [4] is SCC25 cells. It counts as cell-based, human. The conditions noted are these: 4 or 7 days. On the procedure: as §1, §2
For experiment [5], the system named is SKBr3 cells. Type of experiment: cell-based, human. The conditions noted are these: 4 or 7 days. On the procedure:
as §1, §2

The subject of experiment [6] is UM-SCC47 cells. Type of experiment: cell-based, human. Particulars: 4 or 7 days. How it is done:
as §1, §2

“SSTNHER2: synthetic peptide of human Sdc1 ectodomain amino acids 210-240 (SEQ ID NO:3), inhibits Sdc1 coupling of HER2 to α6β4 integrin (DFTFETSGENTAVVAVEPDRRNQSPVDQGAT; listed as Homo sapiens)”: the growth or survival entry in experiment [1] and in experiment [2] was “no effect” each time. Further, the proliferation and survival result in experiment [3] (MDA-MB-468 (triple-negative), single peptide 3-30 μM) was “no effect”; in experiment [4] (single peptide 3-30 μM) it was “target the proliferation and survival”; in experiment [5] (single peptide 3-30 μM), “target the proliferation and survival”; in experiment [6] (single peptide 3-30 μM), “target the proliferation and survival”. The “total cell number, combination with the other SSTN peptides” value is listed as “not affected” in experiment [3] (MDA-MB-468, each peptide at 10 μM); “enhanced” in experiment [4] (each peptide at 10 μM); “enhanced” in experiment [5] (each peptide at 10 μM); “enhanced” in experiment [6] (each peptide at 10 μM).

Values taken from US10010581B2, “Syndecan peptides and polypeptides and uses thereof” (Wisconsin Alumni Research Foundation, priority 2012, dated 2018).
